According to patent US20080057529A1, “Method for Identifying Histone Deacetylase Inhibitors” (priority 2003, published 2008):

Assays:
Assay type in all cases: cell-based, human
p21 minimal promoter [1] = assay: Fluorometric β-lactamase activity assay in stable HeLa clone 1.17 (p21m-BLA)
Procedure: All clones were screened for the presence of stably and functional integrated copies of the p21m-BLA reporter gene transcription cassette by performing a fluorometric β-lactamase activity assay after treatment with the HDAC inhibitor Apicidin at a concentration of 1 μM (saturating dose representing 100% of Bla gene activation, i.e., 100% of HDAC inhibition). A 100 μL aliquot of cells for each stable transformant in complete DMEM was plated into a well of a 96 well plate at about 36,000 cells per well for treatment with 1 μM Apicidin (saturating dose) and a 100 μL aliquot of cells was plated into a well of a 96 well plate at 24,000 cells per well for treatment with DMSO (vehicle control). […] After 4 hours, 25 μL of complete DMEM containing Apicidin at 5× final concentration or DMSO (5%) was added to each of the wells. The cells were then grown at 37° C., 5% CO2 for about 12 to 16 hours. Afterwards, the medium was removed and 100 μL of DMEM without serum and 25 μL of FRET labeled CCF2-AM Bla substrate diluted in the appropriate buffer according to the manufacturer recommendations were each added to the cells to give a final concentration of 1 μM CCF2-AM.

[2] = tested on: HDAC activity (acetylated histone H3); assay: Acetylation of core histones (inhibition of HDAC activity) in HeLa cells, acetylated histone H3 immunoblot; details: Homo sapiens, HeLa, 13 h, read-out: AcH3 EC50
Procedure: (§1) Induction of endogenous p21 and acetylation of core histones (inhibition of HDAC activity) was as follows. Dose-response experiments were performed in HeLa cells with different classes of known HDAC inhibitors. […] An α-tubulin-specific antibody (Sigma, St. Louis, Mo.; catalog number: T9026) was used as an internal standard. Quantitative data were obtained by densitometric analysis of X-ray films and were normalized for the internal standard values.

endogenous p21 = assay: Induction of endogenous p21 in HeLa cells, immunoblot; details: Homo sapiens, 13 hour treatment, immunoblot densitometry, read-out: Endogenous p2 EC50
Procedure: as §1

p21 minimal promoter [3] = assay: Transient transfection of HeLa cells with p21m-SEAP reporter plasmid, SEAP activity; details: Apicidin 1 μM; for Fold Induct. (SEAP norm) / Fold induct. (SEAP) / SEAP (fold ind) / SEAP norm.-bckg/RLU norm (fold ind): vs DMSO
Procedure: To determine whether the p21 minimal promoter was responsive to HDAC inhibitors, a reporter plasmid containing the secreted alkaline phosphatase gene (SEAP) operably linked to the p21 minimal promoter (−182 through +25), pcDNA3-21m-SEAP, was tested in transient transfection experiments of HeLa cells. […] All data summarized in Tables 4 through 7 were obtained by normalizing the total amount of transfected DNA to 2.1 μg using a promoterless plasmid.

CMV promoter = assay: Transient transfection of HeLa cells with CMV-BLA (pCMV-BLA) reporter plasmid, Bla staining (blue cells); details: Apicidin 1 μM; for % Blue cells: Table 3, 2 μg pCMV-BLA + 0.1 μg pCMV-Luc, TSA 300 nM; for Bla staining at 60 min. / fold-ind. at 60 min. (Bla): Table 6; for fold-ind. at 60 min. (Bla): vs DMSO
Procedure: (§2) The p21m-BLA reporter plasmid was tested in transient transfection experiments of HeLa cells to evaluate the responsiveness of the minimal p21 promoter and the Bla reporter system to known HDAC inhibitors. In the first two transfection experiments, HeLa cells were transfected with 1 or 2 μg of Bla reporter plasmid containing either p21 minimal promoter (p21m-BLA) or CMV promoter (CMV-BLA) and 0.1 μg of pCMV-Luc or pRSV-Luc control plasmids. Different DNA-FUGENE transfection reagent ratios were tested (FUGENE is available from Roche Applied Science, Indianapolis, Ind.). […] Data are summarized below in Tables 1 and 2.
(§3) The percentage of β-lactamase-positive cells increased with time independent of the presence of HDAC inhibitors and was constantly higher with p21m-BLA than with pCMV-BLA.
(§4) In light of the above, the lack of apparent Bla activation in the above transfection experiments might have been due to the high sensitivity of the method. Therefore, transient transfections in which an accurate titration of the reporter plasmid DNA were performed. The titration of the reporter plasmid included using amounts lower than was used above. […] The transient transfections were repeated and the result confirmed (Table 7).

HeLa cells = assay: Cell death in transiently transfected HeLa cells; details: after 6 hours; TSA 300 nM, Apicidin 1 μM; transfected HeLa cells
Procedure: as §2, §3

p21 minimal promoter [4] = assay: Transient transfection of HeLa cells with p21m-BLA reporter plasmid, Bla staining (blue cells); details: Apicidin 1 μM; for % Blue cells: Table 3, 2 μg p21m-BLA + 0.1 μg pCMV-Luc, TSA 300 nM; for Bla staining at 60 min. / fold-ind. at 60 min. (Bla): Table 6; for fold-ind. at 60 min. (Bla) / fold-ind. at 15 min. (Bla): vs DMSO; for Bla staining at 15 min / fold-ind. at 15 min. (Bla): Table 7 (repeat)
Procedure: as §2, §3, §4

[5] = Table 5, TSA 300 nM, P21m-SEAP 0.1 μg DNA
[6] = Table 5, TSA 300 nM, P21m-SEAP 0.2 μg DNA
[7] = Table 5, TSA 300 nM, P21m-SEAP 0.5 μg DNA
[8] = Table 5, TSA 300 nM, P21m-SEAP 1 μg DNA
[9] = Table 5, TSA 300 nM, P21m-SEAP 2 μg DNA

## CCC(=O)CCCCC[C@@H]1NC(=O)[C@H]2CCCCN2C(=O)[C@H]([C@@H](C)CC)NC(=O)[C@H](Cc2cn(OC)c3ccccc23)NC1=O [Apicidin]
p21 minimal promoter [1]; Homo sapiens, HeLa, 13 h, read-out: p21m-Bla EC50
  EC50: 170 nM
p21 minimal promoter [1]; clone 1.17, saturating amounts of Apicidin (1 μM)
  induction over DMSO (slope analysis of β-lactamase activity): ~200 fold
[2]
  EC50: 110 nM
Endogenous p21
  EC50: 70 nM
p21 minimal promoter [3]; TSA 300 nM, p21m-SEAP promoter titration in HeLa
  induction of SEAP (maximum): up to 20 fold
p21 minimal promoter [3]; Table 4, P21m-SEAP 0 μg DNA (total DNA 2.1 μg)
  SEAP (10 min): 11366
p21 minimal promoter [3]; Table 4, P21m-SEAP 0 μg DNA
  SEAP activity normalised to total protein: 5683
  Fold Induct. (SEAP norm): 4.901 fold
  Fold induct. (SEAP): 3.5 fold
p21 minimal promoter [3]; Table 4, P21m-SEAP 0.1 μg DNA (total DNA 2.1 μg)
  SEAP (10 min): 41278
p21 minimal promoter [3]; Table 4, P21m-SEAP 0.1 μg DNA
  SEAP activity normalised to total protein: 27518.67
  Fold Induct. (SEAP norm): 7.691 fold
  Fold induct. (SEAP): 4.8 fold
p21 minimal promoter [3]; Table 4, P21m-SEAP 0.2 μg DNA (total DNA 2.1 μg)
  SEAP (10 min): 33449
p21 minimal promoter [3]; Table 4, P21m-SEAP 0.2 μg DNA
  SEAP activity normalised to total protein: 16724.5
  Fold Induct. (SEAP norm): 14.9372 fold
  Fold induct. (SEAP): 10.3 fold
p21 minimal promoter [3]; Table 4, P21m-SEAP 0.5 μg DNA (total DNA 2.1 μg)
  SEAP (10 min): 81729
p21 minimal promoter [3]; Table 4, P21m-SEAP 0.5 μg DNA
  SEAP activity normalised to total protein: 54486
  Fold Induct. (SEAP norm): 19.2643 fold
  Fold induct. (SEAP): 9.6 fold
p21 minimal promoter [3]; Table 4, P21m-SEAP 1 μg DNA (total DNA 2.1 μg)
  SEAP (10 min): 85405
p21 minimal promoter [3]; Table 4, P21m-SEAP 1 μg DNA
  SEAP activity normalised to total protein: 61003.57
  Fold Induct. (SEAP norm): 17.5478 fold
  Fold induct. (SEAP): 8.8 fold
p21 minimal promoter [3]; Table 4, P21m-SEAP 2 μg DNA (total DNA 2.1 μg)
  SEAP (10 min): 795345
p21 minimal promoter [3]; Table 4, P21m-SEAP 2 μg DNA
  SEAP activity normalised to total protein: 441858.3
  Fold Induct. (SEAP norm): 15.3076 fold
  Fold induct. (SEAP): 9.8 fold
p21 minimal promoter [3]; Table 5, TSA 300 nM, P21m-SEAP 0 μg DNA (total DNA 2.1 μg)
  SEAP (10 min): 2133
p21 minimal promoter [3]; Table 5, TSA 300 nM, P21m-SEAP 0 μg DNA
  SEAP (fold ind): 1.8 fold
p21 minimal promoter [3]; [5]
  SEAP norm-bckg/RLU norm: 4,740.65
  SEAP (fold ind): 3.3 fold
  SEAP norm.-bckg/RLU norm (fold ind): 10.7 fold
p21 minimal promoter [3]; Table 5, TSA 300 nM, P21m-SEAP 0.1 μg DNA (total DNA 2.1 μg)
  SEAP (10 min): 5661
p21 minimal promoter [3]; [6]
  SEAP norm-bckg/RLU norm: 10,064.04
  SEAP (fold ind): 3.75 fold
  SEAP norm.-bckg/RLU norm (fold ind): 16.4 fold
p21 minimal promoter [3]; Table 5, TSA 300 nM, P21m-SEAP 0.2 μg DNA (total DNA 2.1 μg)
  SEAP (10 min): 10279
p21 minimal promoter [3]; [7]
  SEAP norm-bckg/RLU norm: 24,280.99
  SEAP (fold ind): 6.25 fold
  SEAP norm.-bckg/RLU norm (fold ind): 17.9 fold
p21 minimal promoter [3]; Table 5, TSA 300 nM, P21m-SEAP 0.5 μg DNA (total DNA 2.1 μg)
  SEAP (10 min): 16014
p21 minimal promoter [3]; [8]
  SEAP norm-bckg/RLU norm: 68,122.56
  SEAP (fold ind): 6.8 fold
  SEAP norm.-bckg/RLU norm (fold ind): 16.9 fold
p21 minimal promoter [3]; Table 5, TSA 300 nM, P21m-SEAP 1 μg DNA (total DNA 2.1 μg)
  SEAP (10 min): 48928
p21 minimal promoter [3]; [9]
  SEAP norm-bckg/RLU norm: 219,589.86
  SEAP (fold ind): 4.5 fold
  SEAP norm.-bckg/RLU norm (fold ind): 17.3 fold
p21 minimal promoter [3]; Table 5, TSA 300 nM, P21m-SEAP 2 μg DNA (total DNA 2.1 μg)
  SEAP (10 min): 108562
CMV promoter; 6 hr treatment
  % Blue cells: 4%
CMV promoter; 12 hr treatment
  % Blue cells: 3%
CMV promoter; 24 hr treatment
  % Blue cells: 10%
CMV promoter; pCMV-BLA 0 μg DNA
  Bla staining at 60 min.: 0%
CMV promoter; pCMV-BLA 0.02 μg DNA
  Bla staining at 60 min.: 5%
  fold-ind. at 60 min. (Bla): 1 fold
CMV promoter; pCMV-BLA 0.05 μg DNA
  Bla staining at 60 min.: 5-10%
  fold-ind. at 60 min. (Bla): 1 fold
CMV promoter; pCMV-BLA 0.1 μg DNA
  Bla staining at 60 min.: 10-15%
  fold-ind. at 60 min. (Bla): 1 fold
CMV promoter; pCMV-BLA 0.2 μg DNA
  Bla staining at 60 min.: 20%
  fold-ind. at 60 min. (Bla): 1 fold
CMV promoter; pCMV-BLA 0.5 μg DNA
  Bla staining at 60 min.: 40%
  fold-ind. at 60 min. (Bla): 1 fold
HeLa cells
  Cell-death: not visible
p21 minimal promoter [4]; only with the lowest DNA amounts
  induction of β-lactamase activity: 3- to 5 fold
p21 minimal promoter [4]; 6 hr treatment
  % Blue cells: 6%
p21 minimal promoter [4]; 12 hr treatment
  % Blue cells: 10%
p21 minimal promoter [4]; 24 hr treatment
  % Blue cells: 25%
p21 minimal promoter [4]; p21m-BLA 0 μg DNA
  Bla staining at 60 min.: 0%
  Bla staining at 15 min: 0%
p21 minimal promoter [4]; p21m-BLA 0.02 μg DNA
  Bla staining at 60 min.: 2-3%
  fold-ind. at 60 min. (Bla): 3-4 fold
  Bla staining at 15 min: 6-10%
  fold-ind. at 15 min. (Bla): 2-3 fold
p21 minimal promoter [4]; p21m-BLA 0.05 μg DNA
  Bla staining at 60 min.: 10-15%
  fold-ind. at 60 min. (Bla): 5 fold
  Bla staining at 15 min: 20-25%
  fold-ind. at 15 min. (Bla): 4-5 fold
p21 minimal promoter [4]; p21m-BLA 0.1 μg DNA
  Bla staining at 60 min.: 25-30%
  fold-ind. at 60 min. (Bla): 2 fold
  Bla staining at 15 min: 25-30%
  fold-ind. at 15 min. (Bla): 2 fold
p21 minimal promoter [4]; p21m-BLA 0.2 μg DNA
  Bla staining at 60 min.: 35-40%
  fold-ind. at 60 min. (Bla): 2 fold
  Bla staining at 15 min: 40%
  fold-ind. at 15 min. (Bla): 1.3 fold
p21 minimal promoter [4]; p21m-BLA 0.5 μg DNA
  Bla staining at 60 min.: 50%
  fold-ind. at 60 min. (Bla): 1.25 fold
  Bla staining at 15 min: 40%
  fold-ind. at 15 min. (Bla): 1 fold
